Here are results for 2 compounds from patent US12171232B1, “N-[(4,6-dimethylpyrimidin-2-yl)carbamothioyl] pyridine-3-carboxamide as an eco-friendly insecticidal agent against Spodoptera littoralis (boisd.)” (KING FAISAL UNIVERSITY, priority 2023, dated 2024).

The test deals with Spodoptera littoralis. Description: Insecticidal bioassay screening (castor leaf dip) on larvae of the laboratory strain of cotton leafworm. The conditions noted are these: for Toxicity index %: 72 hrs, Diflubenzuron's LC50 / compound's LC50 x 100; for LC90 (mg/L) at 95%: laboratory strain, after 72 hrs of treatment; for LC50: Spodoptera littoralis, foliar. The test is classed as in vivo. As for the experimental part:
Five concentrations (200, 100, 50, 25, 12.5 ppm) were designed for this synthetic compound and the reference Diflubenzuron compound as the dynamic ingredients based on ppm via diluting the commercial formulation.
In this experiment, castor leaves are immersed in each of the previously prepared concentrations of the components for 10 seconds and then left to dry for 60 minutes. Larvae of the second and fourth instars of each checked strain are prepared with treated leaves in gauze-covered glass containers for 72 hrs. An untreated control is made in which leaves are dipped in triton x-100 and distilled water only. Then the preserved leaves were removed & fresh, untreated leaves were provided for 72 hours. Three replicates (10 larvae each) were checked for each concentration. Daily inspection was carried out for all treatments and mortality percentages were recorded 3 days (72 hours) after treatment. The average mortality percentage was corrected employing Abbott's formula. The corrected mortality rate for each of the previously synthesized compounds is statistically calculated according to Finney (1970). Through this rate, the corresponding concentration test lines (LDP lines) are assessed.

The mark [1] stands for this setting: 72 h, read-out: LC50 (mg/L) at 95%, 2nd instar larvae, laboratory strain, after 72 hrs of treatment.
[2] abbreviates: 72 h, read-out: LC50 (mg/L) at 95%, 4th instar larvae, laboratory strain, after 72 hrs of treatment.

In brackets after ≈: the same amount, converted by molar mass. Like-named read-outs stand apart in the source and are kept apart here.

For `Cc1cc(C)nc(NC(=S)NC(=O)c2cccnc2)n1` [Compound 2, N-[(4,6-Dimethylpyrimidin-2-yl)carbamothioyl]pyridine-3-carboxamide], the Toxicity index % is, setting by setting: (2nd instar larvae) 31.8%; (4th instar larvae) 44.9%. For the same compound, the “LC90 (mg/L) at 95%” value was 2112.3 mg/L (≈ 7350 µM) (2nd instar larvae) and 5732.3 mg/L (≈ 19900 µM) (4th instar larvae). Also, the LC50 under setting [1] was around 142 mg/L (≈ 495 µM) and the LC50 under setting [2] was around 321 mg/L (≈ 1120 µM). Under “result in words, from Table 1 and FIGS. 2A-2B, 72 h”, the “activity against Spodoptera littoralis” value is on record as “active”.
Consider `O=C(NC(=O)c1c(F)cccc1F)Nc1ccc(Cl)cc1` [Diflubenzuron], for which the Toxicity index % is given as 100% (2nd instar larvae) and 100% (4th instar larvae). For the same compound, the “LC90 (mg/L) at 95%” value is 520.0 mg/L (≈ 1670 µM) (2nd instar larvae) and 1540.5 mg/L (≈ 4960 µM) (4th instar larvae). Also, the LC50 is, setting by setting: under setting [1], 45.2 mg/L (≈ 145 µM); under setting [2], 144 mg/L (≈ 464 µM); (against Spodoptera littoralis under laboratory conditions, instar not stated) 45.2 mg/L (≈ 145 µM).
